Laboratory results from patent US8598357B2, “Benzodioxole piperidine compounds” (Hoffmann-La Roche Inc., priority 2011, dated 2013).
Like-named read-outs stand apart in the source and are kept apart here.

Key:
5-HT2A receptor = 5-HT2A receptor (Homo sapiens (Human), UniProt P28223); test: Radioligand binding assay ([3H]-ketanserin) on membranes of HEK293 EBNA cells expressing human 5-HT2A receptor; details: read-out: 5HT2A Ki
Protocol: (§1) HEK293 EBNA cells were transiently transfected with expression plasmids encoding for the human D2 or D3 or for the human 5-HT2A receptor, respectively. The cells were harvested 48 h post-transfection, washed three times with cold PBS and stored at −80° C. prior to use. The pellet was suspended in cold 50 mM Tris-HCl buffer containing 10 mM EDTA (pH 7.4) and was homogenized with a Polytron (Kinematica AG, Basel, Switzerland) for 20-30 sec at 12.000 rpm. After centrifugation at 48.000×g for 30 min at 4° C., the pellet was resuspended in cold 10 mM Tris-HCl buffer containing 0.1 mM EDTA (pH 7.4), homogenized, and centrifuged as above. This pellet was further resuspended in a smaller volume of ice cold 10 mM Tris-HCl buffer containing 0.1 mM EDTA (pH 7.4) and homogenized with a Polytron for 20-30 sec at 12.000 rpm. The protein content of this homogenate was determined with the Bio-Rad (Bradford) Protein Assay (Biorad Laboratories GmbH, München, Germany) according to the instructions of the manufacturer using gamma globulin as the standard. This homogenate was stored at −80° C. in aliquots and thawed immediately prior to use.
(§2) Aliquots of membrane preparations were thawed at RT, resuspended in assay buffer (D2, D3: 50 mM Tris-HCl, 120 mM NaCl, 5 mM MgCl2, 1 mM EDTA, 5 mM KCl, 1.5 mM CaCl2, pH=7.4; 5-HT2A: 50 mM Tris-HCl, 10 mM MgCl2, 1 mM EGTA, pH=7.4), homogenized with a Polytron for 20-30 sec at 12.000 rpm and adjusted to a final concentration of approximately 7.5 μg protein/well (D2, D3) and 15 μg protein/well (5-HT2A), respectively.
(§3) The nonspecific binding was determined with equally composed reaction mixtures in the presence of 10 μM unlabelled spiperone. Per well 45 μl of Microscint 40 (Perkin Elmer, Schwerzenbach, Switzerland) was added, plates for sealed, shaken for 20 min and counted for 3 min on a Topcount Microplate Scintillation Counter (Can berra Packard SA, Ziirich, Switzerland) with quenching correction.
(§4) The CPM value for each duplicate of a concentration of competing compound was averaged (y1), then the % specific binding was calculated according to the equation (((y1−non-specific)/(total binding−non-specific))×100). Graphs were plotted with the % specific binding using XLfit, a curve fitting program that iteratively plots the data using Levenberg-Marquardt algorithm. The single site competition analysis equation used was y=A+((B−A)/(1+((x/C)D))), where y is the % specific binding, A is the minimum y, B is the maximum y, C is the IC50, x is the log 10 of the concentration of the competing compound and D is the slope of the curve (the Hill Coefficient). […] The affinity constant (K) was calculated using the Cheng-Prusoff equation Ki=(IC50/1+([L]/Kd), where [L] is the concentration of radioligand and Kd is the dissociation constant of the radioligand at the receptor as determined by the saturation isotherm.

D3 receptor = D3 receptor (Homo sapiens (Human), UniProt P35462); test: Radioligand binding assay ([3H]-spiperone) on membranes of HEK293 EBNA cells expressing human D3 receptor; details: read-out: D3 Ki; human receptor in HEK293 EBNA cells; 0.5 nM [3H]-spiperone
Chain of D3 receptor (P35462 whole entry): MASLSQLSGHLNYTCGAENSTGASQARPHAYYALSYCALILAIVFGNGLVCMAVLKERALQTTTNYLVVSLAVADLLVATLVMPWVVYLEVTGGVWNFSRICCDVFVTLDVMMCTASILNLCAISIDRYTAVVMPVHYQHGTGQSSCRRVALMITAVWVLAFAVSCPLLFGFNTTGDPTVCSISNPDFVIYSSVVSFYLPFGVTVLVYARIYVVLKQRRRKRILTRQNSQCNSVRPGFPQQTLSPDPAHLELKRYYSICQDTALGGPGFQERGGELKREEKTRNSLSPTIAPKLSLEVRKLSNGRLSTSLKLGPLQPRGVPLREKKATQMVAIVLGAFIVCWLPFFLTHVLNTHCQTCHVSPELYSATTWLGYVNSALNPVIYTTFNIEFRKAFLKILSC
Protocol: as §1, §2, §3, §4

D2 receptor = D2 receptor (Homo sapiens (Human), UniProt P14416); test: Radioligand binding assay ([3H]-spiperone) on membranes of HEK293 EBNA cells expressing human D2 receptor; details: human receptor in HEK293 EBNA cells; 0.7 nM [3H]-spiperone
Chain of D2 receptor (P14416 whole entry): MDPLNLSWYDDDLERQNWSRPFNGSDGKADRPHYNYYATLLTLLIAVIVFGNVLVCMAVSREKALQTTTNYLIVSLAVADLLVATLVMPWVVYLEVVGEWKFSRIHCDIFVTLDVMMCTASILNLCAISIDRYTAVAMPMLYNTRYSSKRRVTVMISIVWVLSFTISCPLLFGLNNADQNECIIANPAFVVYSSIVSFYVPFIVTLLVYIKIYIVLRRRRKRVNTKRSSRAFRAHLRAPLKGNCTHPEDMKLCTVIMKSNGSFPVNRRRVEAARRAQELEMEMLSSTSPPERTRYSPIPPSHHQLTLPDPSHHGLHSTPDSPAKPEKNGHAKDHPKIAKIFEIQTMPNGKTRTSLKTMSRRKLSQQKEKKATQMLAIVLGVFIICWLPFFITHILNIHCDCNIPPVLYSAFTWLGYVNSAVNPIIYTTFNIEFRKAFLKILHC

[1] = human receptor in HEK293 EBNA cells, 1.1 nM [3H]-ketanserin

Row | SMILES | Ki (5-HT2A receptor; [1]) | Ki (D3 receptor) | Ki (D2 receptor) | Ki (5-HT2A receptor)
1 | Cc1ccc(C(=O)N[C@H]2CC[C@H](CCN3CCC(c4cccc5c4OCO5)CC3)CC2)cn1 [Example 15, Trans-N-{4-[2-(4-Benzo[1,3]dioxol-4-yl-piperidin-1-yl)-ethyl]-cyclohexyl}-6-methyl-nicotinamide] | 11.5 nM | 11.6 nM | 133 nM | –
2 | O=C(N[C@H]1CC[C@H](CCN2CCC(c3cccc4c3OCO4)CC2)CC1)C(O)C(F)(F)F (stereo partly drawn) [Example 12, Trans-N-{4-[2-(4-Benzo[1,3]dioxol-4-yl-piperidin-1-yl)-ethyl]-cyclohexyl}-3,3,3-trifluoro-2-hydroxy-propionamide] | – | 8.45 nM | 236 nM | 14 nM
3 | CC(C)(O)CC(=O)N[C@H]1CC[C@H](CCN2CCC(c3cccc4c3OCO4)CC2)CC1 [Example 35, Trans-N-{4-[2-(4-Benzo[1,3]dioxol-4-yl-piperidin-1-yl)-ethyl]-cyclohexyl}-3-hydroxy-3-methyl-butyramide] | 26.1 nM | 5.92 nM | 282 nM | –
4 | O=C(Nc1ccc(Cl)cc1)N[C@H]1CC[C@H](CCN2CCC(c3cccc4c3OCO4)CC2)CC1 [Example 77, N-trans-1-{4-[2-(4-Benzo[1,3]dioxol-4-yl-piperidin-1-yl)-ethyl]-cyclohexyl}-3-(4-chloro-phenyl)-urea] | 224 nM | 23.6 nM | 2710 nM | –
5 | CC(C)CC(=O)N[C@H]1CC[C@H](CCN2CCC(c3cccc4c3OCO4)CC2)CC1 [Example 24, Trans-N-{4-[2-(4-Benzo[1,3]dioxol-4-yl-piperidin-1-yl)-ethyl]-cyclohexyl}-3-methyl-butyramide] | 28.5 nM | 5 nM | 239 nM | –
6 | O=C(N[C@H]1CC[C@H](CCN2CCC(c3cccc4c3OCO4)CC2)CC1)c1ccc(N2CCOCC2)cc1 [Example 56, Trans-N-{-4-[2-(4-Benzo[1,3]dioxol-4-yl-piperidin-1-yl)-ethyl]-cyclohexyl}-4-morpholin-4-yl-benzamide] | 18.5 nM | 10.1 nM | 593 nM | –
7 | O=C(C[C@@H]1CCCCO1)N[C@H]1CC[C@H](CCN2CCC(c3cccc4c3OCO4)CC2)CC1 [Example 40, Trans-N-{4-[2-(4-Benzo[1,3]dioxol-4-yl-piperidin-1-yl)-ethyl]-cyclohexyl}-2-(S)-tetrahydro-pyran-2-yl-acetamide] | – | 9 nM | 422 nM | 27.9 nM
8 | CO[C@H](C)C(=O)N[C@H]1CC[C@H](CCN2CCC(c3cccc4c3OCO4)CC2)CC1 [Example 34, Trans-(R)—N-{4-[2-(4-Benzo[1,3]dioxol-4-yl-piperidin-1-yl)-ethyl]-cyclohexyl}-2-methoxy-propionamide] | 9.57 nM | 27.8 nM | 504 nM | –
9 | Cc1cc(CC(=O)N[C@H]2CC[C@H](CCN3CCC(c4cccc5c4OCO5)CC3)CC2)on1 [Example 19, Trans-N-{4-[2-(4-Benzo[1,3]dioxol-4-yl-piperidin-1-yl)-ethyl]-cyclohexyl}-2-(3-methyl-isoxazol-5-yl)-acetamide] | 19.8 nM | 1.19 nM | 516 nM | –
10 | O=C(N[C@H]1CC[C@H](CCN2CCC(c3cccc4c3OCO4)CC2)CC1)C1CCS(=O)(=O)C1 (stereo partly drawn) [Example 52, 1,1-Dioxo-tetrahydro-thiophene-3-carboxylic acid-trans-{4-[2-(4-benzo[1,3]dioxol-4-yl-piperidin-1-yl)-ethyl]-cyclohexyl}-amide] | – | 16.3 nM | 130 nM | 4.57 nM
11 | N#CCC(=O)N[C@H]1CC[C@H](CCN2CCC(c3cccc4c3OCO4)CC2)CC1 [Example 20, Trans-N-{-4-[2-(4-Benzo[1,3]dioxol-4-yl-piperidin-1-yl)-ethyl]-cyclohexyl}-2-cyano-acetamide] | – | 3.12 nM | 203 nM | 22.4 nM
12 | CS(=O)(=O)N[C@H]1CC[C@H](CCN2CCC(c3cccc4c3OCO4)CC2)CC1 [Example 69, Trans-N-{4-[2-(4-Benzo[1,3]dioxol-4-yl-piperidin-1-yl)-ethyl]-cyclohexyl}-methanesulfonamide] | 31.3 nM | 10.5 nM | 414 nM | –
13 | O=C(N[C@H]1CC[C@H](CCN2CCC(c3cccc4c3OCO4)CC2)CC1)c1ccc(Cl)cc1 [Example 36, Trans-N-{4-[2-(4-Benzo[1,3]dioxol-4-yl-piperidin-1-yl)-ethyl]-cyclohexyl}-4-chloro-benzamide] | 21.8 nM | 6.36 nM | 147 nM | –
14 | O=C(C[C@H]1CCCOC1)N[C@H]1CC[C@H](CCN2CCC(c3cccc4c3OCO4)CC2)CC1 [Example 43, Trans-N-{4-[2-(4-Benzo[1,3]dioxol-4-yl-piperidin-1-yl)-ethyl]-cyclohexyl}-2-(R)-tetrahydro-pyran-3-yl-acetamide] | 19.8 nM | 7.8 nM | 408 nM | –
15 | O=C(CC1COC1)N[C@H]1CC[C@H](CCN2CCC(c3cccc4c3OCO4)CC2)CC1 [Example 29, Trans-N-{4-[2-(4-Benzo[1,3]dioxol-4-yl-piperidin-1-yl)-ethyl]cyclohexyl}-2-oxetan-3-yl-acetamide] | 21.9 nM | 5.19 nM | 258 nM | –
16 | CO[C@@H](C)C(=O)N[C@H]1CC[C@H](CCN2CCC(c3cccc4c3OCO4)CC2)CC1 [Example 33, Trans-(S)—N-{4-[2-(4-Benzo[1,3]dioxol-4-yl-piperidin-1-yl)-ethyl]-cyclohexyl}-2-methoxy-propionamide] | 29.1 nM | 50.3 nM | 464 nM | –
17 | CO[C@H]1CC[C@H](CC(=O)N[C@H]2CC[C@H](CCN3CCC(c4cccc5c4OCO5)CC3)CC2)CC1 [Example 63, Trans-N-{4-[2-(4-Benzo[1,3]dioxol-4-yl-piperidin-1-yl)-ethyl]-cyclohexyl}-2-(4-methoxy-cyclohexyl)-acetamide] | 34.3 nM | 8.13 nM | 361 nM | –
18 | O=C(N[C@H]1CC[C@H](CCN2CCC(c3cccc4c3OCO4)CC2)CC1)c1ccnc2ccccc12 [Example 57, Quinoline-4-carboxylic acid-trans-N-{4-[2-(4-benzo[1,3]dioxol-4-yl-piperidin-1-yl)-ethyl]-cyclohexyl}-amide] | 23.1 nM | 6.16 nM | 370 nM | –
19 | CN(C)S(=O)(=O)N[C@H]1CC[C@H](CCN2CCC(c3cccc4c3OCO4)CC2)CC1 [Example 78, Trans-N-{4-[2-(4-benzo[1,3]dioxol-4-yl-piperidin-1-yl)-ethyl]-cyclohexyl}-N,N-dimethyl-sulfamide] | 20.7 nM | 11.6 nM | 229 nM | –
20 | O=C(CC(F)(F)F)N[C@H]1CC[C@H](CCN2CCC(c3cccc4c3OCO4)CC2)CC1 [Example 10, Trans-N-{4-[2-(4-Benzo[1,3]dioxol-4-yl-piperidin-1-yl)-ethyl]-cyclohexyl}-3,3,3-trifluoro-propionamide] | 18.1 nM | 3.98 nM | 209 nM | –
21 | O=C(N[C@H]1CC[C@H](CCN2CCC(c3cccc4c3OCO4)CC2)CC1)N1CCc2ccccc21 [Example 74, 2,3-Dihydro-indole-1-carboxylic acid N-trans-{4-[2-(4-benzo[1,3]dioxol-4-yl-piperidin-1-yl)-ethyl]-cyclohexyl}-amide] | – | 5.12 nM | 229 nM | 25.4 nM
